Values after ≈ are worked out from the molar mass of the structure shown. Like-named read-outs stand apart in the source and are kept apart here.
Experiments:
[1] = test system: Chlamydia pneumoniae; settings: background statement; cited from earlier work
[2] = test system: Chlamydia pneumoniae; assay: MIC against Chlamydia pneumoniae strains in Hep-2 cell monolayers (inhibition of inclusion formation); type: cell-based
Description: Chlamydia pneumoniae TW183 and Chlamydia pneumoniae 2023 were obtained from American Type Culture Collection. The other strains (No. 9 isolated) were clinically isolated in the period 1997-1999. […] Monolayers of Hep-2 cells were prepared by seeding 2×10^5 cell/ml in EMEM with 10% fetal calf serum supplemented with L-glutammine, on 12 mm cover slips and left at 35° C., 5% CO2 for 24 to 48 hours for confluent growth. The growth medium was removed and Hep-2 monolayers were inoculated with the different strains at predetermined concentration calculated to give 3-5×10^2 inclusions for well. The monolayers, inoculated with Chlamydia pneumoniae were centrifuged at 1700 g for 60 minutes at 30° C. […] In positive control no antibiotic was added and negative control were considered wells not inoculated with Chlamydia pneumoniae. […] All tests were run in duplicate. The number of inclusions were counted and the MIC (the lowest concentration at which complete inhibition of inclusion formation was observed) was determined.

[3] = test system: Chlamydia trachomatis; settings: literature (Ridgeway et al. 1979); markedly lower than erythromycin; cited from earlier work
[4] = Chlamydia pneumoniae, 72 h, MIC range over the 11 Chlamydia pneumoniae strains, Hep-2 cells, 3 days, read-out: MIC
[5] = Chlamydia pneumoniae, ATCC2023, strain ATCC 2023, test I, read-out: MIC
[6] = Chlamydia pneumoniae, strain 1 (clinical isolate), test I, read-out: MIC
[7] = Chlamydia pneumoniae, strain 2 (clinical isolate), test I, read-out: MIC
[8] = Chlamydia pneumoniae, strain 2 (clinical isolate), test II, read-out: MIC
[9] = Chlamydia pneumoniae, strain 3 (clinical isolate), test I, read-out: MIC
[10] = Chlamydia pneumoniae, strain 3 (clinical isolate), test II, read-out: MIC
[11] = Chlamydia pneumoniae, strain 4 (clinical isolate), test II, read-out: MIC
[12] = Chlamydia pneumoniae, strain 5 (clinical isolate), test I, read-out: MIC
[13] = Chlamydia pneumoniae, strain 5 (clinical isolate), test II, read-out: MIC

MIC [2, 4]	SMILES	activity in vitro against Chlamydia pneumoniae [1]	MIC [2, 5]	MIC [2, 6]	MIC [2, 7]	MIC [2, 8]	MIC [2, 9]	MIC [2, 10]	MIC [2, 11]	MIC [2, 12]	MIC [2, 13]	also measured
0.06 to 0.5 µg/mL (≈ 0.0801 to 0.668 µM)	CC[C@H]1OC(=O)[C@H](C)[C@@H](O[C@H]2C[C@@](C)(OC)[C@@H](O)[C@H](C)O2)[C@H](C)[C@@H](O[C@@H]2O[C@H](C)C[C@H](N(C)C)[C@H]2O)[C@](C)(O)C[C@@H](C)CN(C)[C@H](C)[C@@H](O)[C@]1(C)O [Azithromycin, azithromycin]	active	0.06 µg/mL (≈ 0.0801 µM)	0.5 µg/mL (≈ 0.668 µM)	0.06 µg/mL (≈ 0.0801 µM)	0.25 µg/mL (≈ 0.334 µM)	0.06 µg/mL (≈ 0.0801 µM)	0.06 µg/mL (≈ 0.0801 µM)	0.5 µg/mL (≈ 0.668 µM)	0.25 µg/mL (≈ 0.334 µM)	0.25 µg/mL (≈ 0.334 µM)	MIC ([2]; Chlamydia pneumoniae, strain 4 (clinical isolate), test I, read-out: MIC): 0.5 µg/mL (≈ 0.668 µM); MIC ([2]; Chlamydia pneumoniae, strain 6 (clinical isolate), test II, read-out: MIC): 0.25 µg/mL (≈ 0.334 µM); MIC ([2]; Chlamydia pneumoniae, strain 7 (clinical isolate), test I, read-out: MIC): 0.25 µg/mL (≈ 0.334 µM); MIC ([2]; Chlamydia pneumoniae, strain 7 (clinical isolate), test II, read-out: MIC): 0.25 µg/mL (≈ 0.334 µM); MIC ([2]; Chlamydia pneumoniae, strain 8 (clinical isolate), test I, read-out: MIC): 0.25 µg/mL (≈ 0.334 µM); MIC ([2]; Chlamydia pneumoniae, strain 8 (clinical isolate), test II, read-out: MIC): 0.25 µg/mL (≈ 0.334 µM); MIC ([2]; Chlamydia pneumoniae, strain 9 (clinical isolate), test I, read-out: MIC): 0.5 µg/mL (≈ 0.668 µM); MIC ([2]; Chlamydia pneumoniae, strain TW 183, test II, read-out: MIC): 0.25 µg/mL (≈ 0.334 µM)
0.03 to 0.25 µg/mL (≈ 0.0842 to 0.702 µM)	CS(=O)(=O)c1ccc([C@@H](O)[C@@H](CO)NC(=O)C(Cl)Cl)cc1 [thiamphenicol]	–	–	–	–	–	–	–	–	–	–	activity against Chlamydia trachomatis [3]: active
> 16 µg/mL	CC1(C)S[C@@H]2[C@H](NC(=O)[C@H](N)c3ccc(O)cc3)C(=O)N2[C@H]1C(=O)O [Amoxicillin, amoxicillin]	–	–	–	–	–	–	–	–	–	–	–

SMILES	MIC [2, 4]	activity in vitro against Chlamydia pneumoniae [1]	MIC [2, 5]	MIC [2, 6]	MIC [2, 7]	MIC [2, 8]	MIC [2, 9]	MIC [2, 10]	MIC [2, 11]	MIC [2, 12]	MIC [2, 13]	also measured
CC[C@H]1OC(=O)[C@H](C)[C@@H](O[C@H]2C[C@@](C)(OC)[C@@H](O)[C@H](C)O2)[C@H](C)[C@@H](O[C@@H]2O[C@H](C)C[C@H](N(C)C)[C@H]2O)[C@](C)(OC)C[C@@H](C)C(=O)[C@H](C)[C@@H](O)[C@]1(C)O [Clarithromycin, clarithromycin]	0.03 to 0.25 µg/mL (≈ 0.0401 to 0.334 µM)	active	0.03 µg/mL (≈ 0.0401 µM)	0.03 µg/mL (≈ 0.0401 µM)	0.25 µg/mL (≈ 0.334 µM)	0.03 µg/mL (≈ 0.0401 µM)	0.03 µg/mL (≈ 0.0401 µM)	0.03 µg/mL (≈ 0.0401 µM)	0.06 µg/mL (≈ 0.0802 µM)	0.03 µg/mL (≈ 0.0401 µM)	0.03 µg/mL (≈ 0.0401 µM)	MIC ([2]; Chlamydia pneumoniae): 0.125 µg/mL (≈ 0.167 µM); MIC ([2]; Chlamydia pneumoniae, ATCC2023, strain ATCC 2023, test II, read-out: MIC): 0.03 µg/mL (≈ 0.0401 µM); MIC ([2]; Chlamydia pneumoniae, strain 1 (clinical isolate), test II, read-out: MIC): 0.03 µg/mL (≈ 0.0401 µM); MIC ([2]; Chlamydia pneumoniae, strain 6 (clinical isolate), test I, read-out: MIC): 0.03 µg/mL (≈ 0.0401 µM); MIC ([2]; Chlamydia pneumoniae, strain 9 (clinical isolate), test II, read-out: MIC): 0.03 µg/mL (≈ 0.0401 µM); MIC ([2]; Chlamydia pneumoniae, strain TW 183, test I, read-out: MIC): 0.03 µg/mL (≈ 0.0401 µM); MIC ([2]; strain 4 (clinical isolate), test I): 0.125 µg/mL (≈ 0.167 µM); MIC ([2]; strain 7 (clinical isolate), test I): 0.125 µg/mL (≈ 0.167 µM); MIC ([2]; strain 7 (clinical isolate), test II): 0.125 µg/mL (≈ 0.167 µM); MIC ([2]; strain 8 (clinical isolate), test I): 0.125 µg/mL (≈ 0.167 µM); MIC ([2]; strain 8 (clinical isolate), test II): 0.125 µg/mL (≈ 0.167 µM); MIC ([2]; strain 9 (clinical isolate), test I): 0.125 µg/mL (≈ 0.167 µM); MIC ([2]; strain TW 183, test II): 0.125 µg/mL (≈ 0.167 µM)
